In the NIST ThermoML archive (doi:10.1016/j.jct.2019.01.021):
Several values for one entry are separate records, joined by “and”; a condition that tells them apart may be missing. Identical values can stand only once.

Experiment: molar heat capacity at constant pressure
Conditions: 101.33 kPa, Crystal 2, Small (less than 1 g) adiabatic calorimetry

N.NS(=O)(=O)O [ammonium sulfamate]
Conditions	molar heat capacity at constant pressure
187.31 K	118.02 J/K/mol
188.37 K	118.34 J/K/mol
189.42 K	118.66 J/K/mol
190 K	119.06 J/K/mol
190.47 K	118.99 J/K/mol
191.52 K	119.43 J/K/mol
192.57 K	119.89 J/K/mol
193.62 K	120.26 J/K/mol
194.67 K	120.69 J/K/mol
195.72 K	121.06 J/K/mol
196.77 K	121.57 J/K/mol
197.82 K	122.07 J/K/mol
198.87 K	122.46 J/K/mol
199.92 K	122.56 J/K/mol
200 K	122.64 J/K/mol
200.85 K	122.86 J/K/mol
201.65 K	123.16 J/K/mol
202.45 K	123.44 J/K/mol
203.24 K	123.74 J/K/mol
204.05 K	123.89 J/K/mol
204.85 K	124.1 J/K/mol
205.65 K	124.38 J/K/mol
206.45 K	124.7 J/K/mol
207.25 K	124.92 J/K/mol
208.05 K	125.1 J/K/mol
208.86 K	125.38 J/K/mol
209.66 K	125.69 J/K/mol
210 K	125.96 J/K/mol
210.46 K	125.83 J/K/mol
211.26 K	126.04 J/K/mol
212.07 K	126.32 J/K/mol
212.87 K	126.64 J/K/mol
213.68 K	127 J/K/mol
214.48 K	127.38 J/K/mol
215.28 K	127.75 J/K/mol
216.09 K	127.78 J/K/mol
216.9 K	127.98 J/K/mol
217.7 K	128.19 J/K/mol
218.51 K	128.52 J/K/mol
219.31 K	128.78 J/K/mol
220 K	129.21 J/K/mol
220.12 K	129.04 J/K/mol
220.93 K	129.3 J/K/mol
221.73 K	129.49 J/K/mol
222.54 K	129.74 J/K/mol
223.35 K	130.02 J/K/mol
224.16 K	130.26 J/K/mol
224.97 K	130.53 J/K/mol
225.78 K	130.71 J/K/mol
226.59 K	130.98 J/K/mol
227.4 K	131.32 J/K/mol
228.21 K	131.61 J/K/mol
229.02 K	131.83 J/K/mol
229.83 K	132.08 J/K/mol
230 K	132.37 J/K/mol
230.64 K	132.31 J/K/mol
231.45 K	132.78 J/K/mol
232.27 K	133.46 J/K/mol
233.08 K	133.22 J/K/mol
233.89 K	133.51 J/K/mol
234.71 K	133.83 J/K/mol
235.52 K	134.25 J/K/mol
236.33 K	134.61 J/K/mol
237.15 K	134.97 J/K/mol
237.96 K	135.18 J/K/mol
238.78 K	135.77 J/K/mol
239.59 K	135.43 J/K/mol
240 K	135.44 J/K/mol
240.41 K	136.44 J/K/mol
241.22 K	136.59 J/K/mol
242.04 K	136.32 J/K/mol
242.86 K	137.27 J/K/mol
243.68 K	137.4 J/K/mol
244.44 K	137.03 J/K/mol
244.5 K	136.97 J/K/mol
244.81 K	137.21 J/K/mol
244.94 K	137.26 J/K/mol
245.31 K	136.68 J/K/mol
245.38 K	137.26 J/K/mol
245.44 K	137.55 J/K/mol
245.94 K	137.54 J/K/mol
245.96 K	137.42 J/K/mol
246.13 K	137.45 J/K/mol
246.46 K	137.69 J/K/mol
246.53 K	137.6 J/K/mol
246.95 K	137.65 J/K/mol
246.96 K	137.71 J/K/mol
247.11 K	137.65 J/K/mol
247.46 K	137.8 J/K/mol
247.68 K	138 J/K/mol
247.77 K	137.93 J/K/mol
247.97 K	138.06 J/K/mol
248.25 K	138.01 J/K/mol
248.47 K	138.27 J/K/mol
248.59 K	138.16 J/K/mol
248.83 K	138.31 J/K/mol
248.98 K	138.36 J/K/mol
249.41 K	138.87 J/K/mol
249.42 K	138.7 J/K/mol
249.48 K	138.72 J/K/mol
249.98 K	139.15 J/K/mol and 138.93 J/K/mol
250.24 K	139.23 J/K/mol
250.49 K	139.26 J/K/mol
250.56 K	139.43 J/K/mol
250.99 K	139.62 J/K/mol
251.06 K	139.79 J/K/mol
251.14 K	139.9 J/K/mol
251.5 K	140.25 J/K/mol
251.71 K	140.3 J/K/mol
251.88 K	140.46 J/K/mol
252 K	140.41 J/K/mol
252.28 K	140.89 J/K/mol
252.51 K	140.56 J/K/mol
252.7 K	140.98 J/K/mol
252.86 K	141.23 J/K/mol
253.02 K	141.02 J/K/mol
253.43 K	141.89 J/K/mol
253.52 K	141.72 J/K/mol and 141.4 J/K/mol
254.01 K	143.16 J/K/mol
254.03 K	142.77 J/K/mol
